Laboratory results as given in patent US9210927B2, “Pesticidal compositions and processes related thereto” (Dow AgroSciences LLC, priority 2013, dated 2015).
Read-outs that look alike come from different tables or passages of the source.

Columns and labels:
BAW (Spodoptera exigua) = assay: Bioassays on Beet Armyworm (BAW), 128-well diet tray assay; type: in vivo; details: Spodoptera exigua, 168 h, read-out: BAW Rating
Protocol: (§1) Bioassays on Beet Armyworm (“BAW”) and Corn Earworm (“CEW”) and Cabbage Looper (“CL”)
(§2) Certain molecules disclosed in this document were tested against BAW and CEW and CL using procedures described in the following examples. In the reporting of the results, the “BAW & CEW & CL Rating Table” was used (See Table Section).
Bioassays on BAW (Spodoptera exigua)
Bioassays on BAW were conducted using a 128-well diet tray assay. one to five second instar BAW larvae were placed in each well (3 mL) of the diet tray that had been previously filled with 1 mL of artificial diet to which 50 μg/cm^2 of the test compound (dissolved in 50 μL of 90:10 acetone-water mixture) had been applied (to each of eight wells) and then allowed to dry. Trays were covered with a clear self-adhesive cover, and held at 25° C., 14:10 light-dark for five to seven days. Percent mortality was recorded for the larvae in each well; activity in the eight wells was then averaged. The results are indicated in the table entitled “Table 3: Assay Results” (See Table Section).

CEW (Helicoverpa zea) = assay: Bioassays on Corn Earworm (CEW), 128-well diet tray assay; type: in vivo; details: Helicoverpa zea, 168 h, read-out: CEW Rating
Protocol: as §1, §2
Bioassays on CEW (Helicoverpa zea)
Bioassays on CEW were conducted using a 128-well diet tray assay. one to five second instar CEW larvae were placed in each well (3 mL) of the diet tray that had been previously filled with 1 mL of artificial diet to which 50 μg/cm^2 of the test compound (dissolved in 50 μL of 90:10 acetone-water mixture) had been applied (to each of eight wells) and then allowed to dry. Trays were covered with a clear self-adhesive cover, and held at 25° C., 14:10 light-dark for five to seven days. Percent mortality was recorded for the larvae in each well; activity in the eight wells was then averaged. The results are indicated in the table entitled “Table 3: Assay Results” (See Table Section).

[1] = percent mortality, second instar larvae, 50 μg/cm^2 on artificial diet, five to seven days, 25° C.

Structure (SMILES)	pest or weed control at 50 µg/cm2 (BAW (Spodoptera exigua)) [%]	pest or weed control at 50 µg/cm2 (CEW (Helicoverpa zea); [1]) [%]	pest or weed control at 50 µg/cm2 (CEW (Helicoverpa zea)) [%]
Cc1cc(/C=C/C(c2cc(Cl)cc(Cl)c2)C(F)(F)F)ccc1C(=O)NCc1ccccc1 (centres unmarked) [AC11]	50 to 100	50 to 100	–
Cc1cc(/C=C/C(c2cc(Cl)cc(Cl)c2)C(F)(F)F)ccc1C(=O)NCc1ccccn1 (centres unmarked) [AC12]	50 to 100	50 to 100	–
Cc1cc(/C=C/C(c2cc(Cl)cc(Cl)c2)C(F)(F)F)ccc1C(=O)NCC(=O)NC1CSC1 (centres unmarked) [AC41]	50 to 100	–	–
Cc1cc(/C=C/C(c2cc(Cl)cc(Cl)c2)C(F)(F)F)ccc1C(=O)NCc1nc2ccccc2s1 (centres unmarked) [AC42]	50 to 100	–	–
Cc1cc(/C=C/C(c2cc(Cl)cc(Cl)c2)C(F)(F)F)ccc1C(=O)NCC(=O)NC1CS(=O)(=O)C1 (centres unmarked) [AC81]	50 to 100	–	–
Cc1cc(/C=C\C(c2cc(Cl)cc(Cl)c2)C(F)(F)F)ccc1C(=O)NCC(=O)NC1CC1 (centres unmarked) [AC93]	50 to 100	–	–
O=C(CNC(=O)c1ccc(/C=C/C(c2cc(F)c(Cl)c(F)c2)C(F)(F)F)cc1Br)NCC(F)(F)F (centres unmarked) [AC102]	–	50 to 100	–
O=C(NC1CCN(C2COC2)CC1)c1ccc(/C=C/C(c2cc(Cl)c(Cl)c(Cl)c2)C(F)(F)F)cc1Br (centres unmarked) [AC108, (E)-2-Bromo-N-(1-(oxetan-3-yl)piperidin-4-yl)-4-(4,4,4-trifluoro-3-(3,4,5-trichlorophenyl)but-1-en-1-yl)benzamide]	0 to 50	–	–
Cc1cc(/C=C/C(c2cc(Cl)cc(Cl)c2)C(F)(F)F)ccc1C(=O)NCC1CCCO1 (centres unmarked) [AC118]	50 to 100	–	–
O=C(Cn1ncc2cc(/C=C/C(c3cc(Cl)c(F)c(Cl)c3)C(F)(F)F)ccc2c1=O)NCC(F)(F)F (centres unmarked) [BC14, (E)-2-(6-(3-(3,5-Dichloro-4-fluorophenyl)-4,4,4-trifluorobut-1-en-1-yl)-1-oxophthalazin-2(1H)-yl)-N-(2,2,2-trifluoroethyl)acetamide]	50 to 100	–	–
O=C(Cc1ccc(Cl)nc1)NCc1ccc(/C=C/C(c2cc(Cl)c(Cl)c(Cl)c2)C(F)(F)F)cc1Cl (centres unmarked) [CC14]	50 to 100	–	–
CCNC(=O)NCc1ccc(/C=C/C(c2cc(Cl)cc(Cl)c2)C(F)(F)F)cc1Cl (centres unmarked) [CC31, (E)-1-(2-Chloro-4-(3-(3,5-dichlorophenyl)-4,4,4-trifluorobut-1-en-1-yl)benzyl)-3-ethylurea]	0 to 50	–	–
O=C(NCc1ccc(/C=C/C(c2cc(Cl)c(Cl)c(Cl)c2)C(F)(F)F)cc1Cl)Oc1ccccc1Cl (centres unmarked) [CC40]	–	–	50 to 100
O=C(CC(F)(F)F)NCc1ccc(/C=C/C(c2cc(Cl)c(Cl)c(Cl)c2)C(F)(F)F)c2ccccc12 (centres unmarked) [CC46, (E)-3,3,3-Trifluoro-N-((4-(4,4,4-trifluoro-3-(3,4,5-trichlorophenyl)but-1-en-1-yl)naphthalen-1-yl)methyl)propanamide]	–	50 to 100	–
O=C(NOc1ccc(/C=C/C(c2cc(Cl)c(Cl)c(Cl)c2)C(F)(F)F)cc1)C1CC1 (centres unmarked) [CC52, (E)-N-(4-(4,4,4-Trifluoro-3-(3,4,5-trichlorophenyl)but-1-en-1-yl)phenoxy)cyclopropanecarboxamide]	50 to 100	–	–
FC(F)(F)C(/C=C/c1ccc(-n2cncn2)cc1)c1ccccc1 (centres unmarked) [DC3]	0 to 50	–	–
FC(F)(F)C(/C=C/c1ccc(-n2cncn2)cc1)c1ccc(Cl)cc1 (centres unmarked) [DC4]	50 to 100	–	–
Fc1ccc(C(/C=C/c2ccc(-n3cncn3)cc2)C(F)(F)F)cc1 (centres unmarked) [DC7]	50 to 100	–	–
Fc1cc(F)cc(C(/C=C/c2ccc(-n3cncn3)cc2)C(F)(F)F)c1 (centres unmarked) [DC8]	50 to 100	–	–
Cc1cc(C)cc(C(/C=C/c2ccc(-n3cncn3)cc2)C(F)(F)F)c1 (centres unmarked) [DC11]	50 to 100	–	–
COc1c(Cl)cc(C(/C=C/c2ccc(-n3cncn3)cc2)C(F)(F)F)cc1Cl (centres unmarked) [DC20]	50 to 100	–	–
Cc1ncnn1-c1ccc(/C=C/C(c2cc(Cl)cc(Cl)c2)C(F)(F)F)cc1 (centres unmarked) [DC23]	–	50 to 100	–
OCc1cc(/C=C/C(c2cc(Cl)cc(Cl)c2)C(F)(F)F)ccc1-n1cncn1 (centres unmarked) [DC53]	–	50 to 100	–
Cc1cc(-n2cncn2)ccc1/C=C/C(c1cc(Cl)cc(Cl)c1)C(F)(F)F (centres unmarked) [DC65]	–	50 to 100	–
